Measurements taken from PMC5218480 (PLoS ONE, 2017).

System: MV-4-11 cells
Assay: Gene expression microarray analysis (Affymetrix PrimeView) and GSEA
Assay type: cell-based, human
Design: RFU PODN (11730768_x_at) / Fold change /veh PODN (11730768_x_at) / RFU LINC00158 (11744669_a_at) / Fold change /veh LINC00158 (11744669_a_at) / RFU DUSP10 (11751237_a_at) / Fold change /veh DUSP10 (11751237_a_at) / RFU ID3 (11757404_x_at) / Fold change /veh ID3 (11757404_x_at) / RFU PLEKHG5 (11737974_s_at) / Fold change /veh PLEKHG5 (11737974_s_at) / RFU LRRC4B (11730491_at) / Fold change /veh LRRC4B (11730491_at) / RFU GIMAP4 (11747438_a_at) / Fold change /veh GIMAP4 (11747438_a_at) / RFU KRT8 (11758183_x_at) / Fold change /veh KRT8 (11758183_x_at) / RFU CNN1 (11734310_a_at) / Fold change /veh CNN1 (11734310_a_at) / RFU VPS37D (11726825_at) / Fold change /veh VPS37D (11726825_at) / RFU C10orf10 (11716522_x_at) / Fold change /veh C10orf10 (11716522_x_at) / RFU KIR2DL2 /// KIR2DL4 /// KIR2DL5A /// KIR2DL5B /// KIR2DS1 /// KIR2DS2 /// KIR2DS3 /// KIR2DS4 /// KIR3DL3 /// KIR3DL3 /// KIR3DS1 (11738374_at) / Fold change /veh KIR2DL2 /// KIR2DL4 /// KIR2DL5A /// KIR2DL5B /// KIR2DS1 /// KIR2DS2 /// KIR2DS3 /// KIR2DS4 /// KIR3DL3 /// KIR3DL3 /// KIR3DS1 (11738374_at) / RFU C1QL1 (11718748_at) / Fold change /veh C1QL1 (11718748_at) / RFU TMPRSS4 (11747572_a_at) / Fold change /veh TMPRSS4 (11747572_a_at) / RFU HAMP (11756126_x_at) / Fold change /veh HAMP (11756126_x_at) / RFU RNFT2 (11725882_a_at) / Fold change /veh RNFT2 (11725882_a_at) / RFU NR4A2 (11747474_a_at) / Fold change /veh NR4A2 (11747474_a_at) / RFU ABCC12 (11746883_a_at) / Fold change /veh ABCC12 (11746883_a_at) / RFU TMEM136 (11760407_x_at) / Fold change /veh TMEM136 (11760407_x_at) / RFU CLDN22 /// WWC2 (11732394_at) / Fold change /veh CLDN22 /// WWC2 (11732394_at) / RFU HLA-DPB1 (11760878_x_at) / Fold change /veh HLA-DPB1 (11760878_x_at) / RFU SPINT1 (11716480_a_at) / Fold change /veh SPINT1 (11716480_a_at) / RFU GAP43 (11754022_s_at) / Fold change /veh GAP43 (11754022_s_at) / RFU A4GNT (11735810_at) / Fold change /veh A4GNT (11735810_at) / RFU PRB3 (11715151_x_at) / Fold change /veh PRB3 (11715151_x_at) / RFU TUBB4B (11761932_at) / Fold change /veh TUBB4B (11761932_at) / RFU CAPN14 (11732068_a_at) / Fold change /veh CAPN14 (11732068_a_at) / RFU TMCC2 (11721928_a_at) / Fold change /veh TMCC2 (11721928_a_at) / RFU IRGQ (11745062_a_at) / Fold change /veh IRGQ (11745062_a_at) / RFU FAM174B (11720279_a_at) / Fold change /veh FAM174B (11720279_a_at) / RFU TMPRSS4 (11748680_a_at) / Fold change /veh TMPRSS4 (11748680_a_at) / RFU FAM212B (11763350_a_at) / Fold change /veh FAM212B (11763350_a_at) / RFU PLEKHG5 (11743358_a_at) / Fold change /veh PLEKHG5 (11743358_a_at) / RFU ZSCAN30 (11745921_a_at) / Fold change /veh ZSCAN30 (11745921_a_at) / RFU CMKLR1 (11741424_a_at) / Fold change /veh CMKLR1 (11741424_a_at) / RFU LOC101060620 /// MAPK8IP1 (11723275_at) / Fold change /veh LOC101060620 /// MAPK8IP1 (11723275_at) / RFU SPTSSB (11747773_x_at) / Fold change /veh SPTSSB (11747773_x_at) / RFU PRSS12 (11739890_at) / Fold change /veh PRSS12 (11739890_at) / RFU BIN1 (11741810_x_at) / Fold change /veh BIN1 (11741810_x_at) / RFU WNT11 (11732464_a_at) / Fold change /veh WNT11 (11732464_a_at) / RFU C10orf10 (11716521_a_at) / Fold change /veh C10orf10 (11716521_a_at) / RFU C5orf56 (11738089_at) / Fold change /veh C5orf56 (11738089_at) / RFU CYB561 (11721691_x_at) / Fold change /veh CYB561 (11721691_x_at) / RFU ANKRD19P (11752326_a_at) / Fold change /veh ANKRD19P (11752326_a_at) / RFU OR2T12 /// OR2T33 /// OR2T8 (11738714_s_at) / Fold change /veh OR2T12 /// OR2T33 /// OR2T8 (11738714_s_at) / RFU VCAN (11748164_a_at) / Fold change /veh VCAN (11748164_a_at) / RFU JSRP1 (11732532_at) / Fold change /veh JSRP1 (11732532_at) / RFU KRTAP10-11 (11738290_x_at) / Fold change /veh KRTAP10-11 (11738290_x_at) / RFU MYO3A (11730013_a_at) / Fold change /veh MYO3A (11730013_a_at) / RFU EBF3 (11725865_a_at) / Fold change /veh EBF3 (11725865_a_at) / RFU CAMK2N1 (11719241_x_at) / Fold change /veh CAMK2N1 (11719241_x_at) / RFU C5orf56 (11738088_a_at) / Fold change /veh C5orf56 (11738088_a_at) / RFU OLFML3 (11715873_a_at) / Fold change /veh OLFML3 (11715873_a_at) / RFU LOC100653217 /// NTM (11731650_a_at) / Fold change /veh LOC100653217 /// NTM (11731650_a_at) / RFU MAPK11 (11762145_a_at) / Fold change /veh MAPK11 (11762145_a_at) / RFU FIZ1 (11724087_x_at) / Fold change /veh FIZ1 (11724087_x_at) / RFU OASL (11726364_x_at) / Fold change /veh OASL (11726364_x_at) / RFU SOX15 (11748057_x_at) / Fold change /veh SOX15 (11748057_x_at) / RFU CD79A (11719716_a_at) / Fold change /veh CD79A (11719716_a_at) / RFU HIST1H1D (11736915_at) / Fold change /veh HIST1H1D (11736915_at) / RFU CASKIN2 (11723855_a_at) / Fold change /veh CASKIN2 (11723855_a_at) / RFU LOC730098 (11760151_x_at) / Fold change /veh LOC730098 (11760151_x_at) / RFU OR4N2 (11742367_at) / Fold change /veh OR4N2 (11742367_at) / RFU PRRT2 (11749266_a_at) / Fold change /veh PRRT2 (11749266_a_at) / RFU SNX32 (11753110_a_at) / Fold change /veh SNX32 (11753110_a_at) / RFU CDHR5 (11726645_a_at) / Fold change /veh CDHR5 (11726645_a_at) / RFU RCAN1 (11760418_a_at) / Fold change /veh RCAN1 (11760418_a_at) / RFU FAM167A (11723789_a_at) / Fold change /veh FAM167A (11723789_a_at) / RFU FAM26E (11764081_at) / Fold change /veh FAM26E (11764081_at) / RFU ISYNA1 (11749810_s_at) / Fold change /veh ISYNA1 (11749810_s_at) / RFU ACY1 (11761880_at) / Fold change /veh ACY1 (11761880_at) / RFU 11764098_at / Fold change /veh 11764098_at / RFU SAMD14 (11745864_x_at) / Fold change /veh SAMD14 (11745864_x_at) / RFU NPB (11741838_a_at) / Fold change /veh NPB (11741838_a_at) / RFU TMPRSS6 (11731388_a_at) / Fold change /veh TMPRSS6 (11731388_a_at) / RFU KRTAP10-2 (11738614_at) / Fold change /veh KRTAP10-2 (11738614_at) / RFU ARHGAP8 /// PRR5-ARHGAP8 (11727945_x_at) / Fold change /veh ARHGAP8 /// PRR5-ARHGAP8 (11727945_x_at) / RFU KRTAP5-7 /// NADSYN1 (11734609_at) / Fold change /veh KRTAP5-7 /// NADSYN1 (11734609_at) / RFU RASL12 (11751679_a_at) / Fold change /veh RASL12 (11751679_a_at) / RFU CDKN2B (11736163_a_at) / Fold change /veh CDKN2B (11736163_a_at) / RFU PRF1 (11729649_at) / Fold change /veh PRF1 (11729649_at) / RFU, ZNF638 /// ZNF638-IT1 / Fold change vs veh, ZNF638 /// ZNF638-IT1 / RFU, PANK3 / Fold change vs veh, PANK3 / RFU, SH3YL1 / Fold change vs veh, SH3YL1 / RFU, ZEB2 / Fold change vs veh, ZEB2 / RFU, NRIP1 / Fold change vs veh, NRIP1 / RFU, PTTG1IP / Fold change vs veh, PTTG1IP / RFU, CAPN2 / Fold change vs veh, CAPN2 / RFU, MED14 / Fold change vs veh, MED14 / RFU, SNORA58 / Fold change vs veh, SNORA58 / RFU, C1orf63 / Fold change vs veh, C1orf63 / RFU, LRRFIP1 / Fold change vs veh, LRRFIP1 / RFU, NDUFAF7 / Fold change vs veh, NDUFAF7 / RFU, SLC12A2 / Fold change vs veh, SLC12A2 / RFU, IBTK / Fold change vs veh, IBTK / RFU, ESF1 / Fold change vs veh, ESF1 / Fold change vs veh, TMEM50B / RFU, TAOK1 / Fold change vs veh, TAOK1 / RFU, ACBD3 / Fold change vs veh, ACBD3 / RFU, TMA16 / Fold change vs veh, TMA16 / RFU, RWDD3 / Fold change vs veh, RWDD3 / RFU, BCAT1 / Fold change vs veh, BCAT1 / RFU, EDEM3 / Fold change vs veh, EDEM3 / RFU, TMEM33 / Fold change vs veh, TMEM33 / RFU, WDR75 / Fold change vs veh, WDR75 / RFU, AHCTF1 / Fold change vs veh, AHCTF1 / RFU, TFRC / Fold change vs veh, TFRC / RFU, ZDHHC17 / Fold change vs veh, ZDHHC17 / RFU, NOM1 / Fold change vs veh, NOM1 / RFU, ARL8B / Fold change vs veh, ARL8B / RFU, ZBTB11 / Fold change vs veh, ZBTB11 / RFU, TAMM41 / Fold change vs veh, TAMM41 / RFU, KIAA1704 /// LOC100996395 / Fold change vs veh, KIAA1704 /// LOC100996395 / RFU, ING1 / Fold change vs veh, ING1 / RFU, TRMT61B / Fold change vs veh, TRMT61B / RFU, FUBP3 / Fold change vs veh, FUBP3 / RFU, TP53 / Fold change vs veh, TP53 / RFU, TNKS2 / Fold change vs veh, TNKS2 / RFU, ZFP14 / Fold change vs veh, ZFP14 / RFU, ACTR2 / Fold change vs veh, ACTR2 / RFU, PPP3R1 / Fold change vs veh, PPP3R1 / RFU, PIK3R1 / Fold change vs veh, PIK3R1 / RFU, HNRNPA1 / Fold change vs veh, HNRNPA1 / RFU, RNF170 / Fold change vs veh, RNF170 / RFU, ZNF28 / Fold change vs veh, ZNF28 / RFU, RNGTT / Fold change vs veh, RNGTT / RFU, OGT / Fold change vs veh, OGT / RFU, BRD1 / Fold change vs veh, BRD1 / RFU, MARS / Fold change vs veh, MARS / RFU, ZNF655 / Fold change vs veh, ZNF655 / RFU, FAHD1 / Fold change vs veh, FAHD1 / RFU, BDP1 / Fold change vs veh, BDP1 / RFU, LRRCC1 / Fold change vs veh, LRRCC1 / RFU, ARID1A / Fold change vs veh, ARID1A / RFU, ZNF146 / Fold change vs veh, ZNF146 / RFU, ZNF330 / Fold change vs veh, ZNF330 / RFU, GPN3 / Fold change vs veh, GPN3 / RFU, C9orf123 / Fold change vs veh, C9orf123 / RFU, N4BP2L2 / Fold change vs veh, N4BP2L2 / RFU, ARFIP1 / Fold change vs veh, ARFIP1 / RFU, FAM179B / Fold change vs veh, FAM179B / RFU, BCL10 / Fold change vs veh, BCL10 / RFU, UHRF1BP1L / Fold change vs veh, UHRF1BP1L / RFU, BET1 / Fold change vs veh, BET1 / RFU, CNOT2 / Fold change vs veh, CNOT2 / RFU, ZNF268 / Fold change vs veh, ZNF268 / Fold change vs veh, ZNF507 / RFU, DGCR2 / Fold change vs veh, DGCR2 / RFU, WDSUB1 / Fold change vs veh, WDSUB1 / Fold change vs veh, HSP90B1 /// MIR3652 / RFU, ADSS / Fold change vs veh, ADSS / RFU, GK / Fold change vs veh, GK / RFU, ZNF148 / Fold change vs veh, ZNF148 / RFU, TAF9 / Fold change vs veh, TAF9 / RFU, SLC1A5 / Fold change vs veh, SLC1A5 / RFU, SLMO2 / Fold change vs veh, SLMO2 / RFU, ABCC4 / Fold change vs veh, ABCC4 / RFU, LOC101060439 /// RAP1B / Fold change vs veh, LOC101060439 /// RAP1B / RFU, RFX7 / Fold change vs veh, RFX7 / RFU, GTPBP10 / Fold change vs veh, GTPBP10 / RFU, CNEP1R1 / Fold change vs veh, CNEP1R1 / RFU, BIVM-ERCC5 /// ERCC5 / Fold change vs veh, BIVM-ERCC5 /// ERCC5 / RFU, ILF3 / Fold change vs veh, ILF3 / RFU 11762660_at / Fold change /veh 11762660_at / RFU VCAN (11757783_s_at) / Fold change /veh VCAN (11757783_s_at) / RFU DDX43 (11728927_at) / Fold change /veh DDX43 (11728927_at) / RFU KRT8 (11758188_x_at) / Fold change /veh KRT8 (11758188_x_at) / RFU NKD1 (11759106_at) / Fold change /veh NKD1 (11759106_at) / RFU SRD5A1 (11742802_a_at) / Fold change /veh SRD5A1 (11742802_a_at) / RFU TPSAB1 /// TPSB2 (11721975_s_at) / Fold change /veh TPSAB1 /// TPSB2 (11721975_s_at) / RFU GSTM3 (11746129_a_at) / Fold change /veh GSTM3 (11746129_a_at) / RFU IL23R (11737362_x_at) / Fold change /veh IL23R (11737362_x_at) / RFU TMEM51 (11727254_a_at) / Fold change /veh TMEM51 (11727254_a_at) / RFU PIWIL2 (11732686_x_at) / Fold change /veh PIWIL2 (11732686_x_at) / RFU ORM1 (11744905_x_at) / Fold change /veh ORM1 (11744905_x_at) / RFU CCDC152 (11743942_at) / Fold change /veh CCDC152 (11743942_at) / RFU ECM1 (11717891_a_at) / Fold change /veh ECM1 (11717891_a_at) / RFU IL23R (11748794_a_at) / Fold change /veh IL23R (11748794_a_at) / RFU TNFAIP8L3 (11732012_x_at) / Fold change /veh TNFAIP8L3 (11732012_x_at) / RFU MBOAT4 (11741988_at) / Fold change /veh MBOAT4 (11741988_at) / RFU 11764193_at / Fold change /veh 11764193_at / RFU TMEM53 (11763286_at) / Fold change /veh TMEM53 (11763286_at) / RFU MAGEB2 (11727129_at) / Fold change /veh MAGEB2 (11727129_at) / RFU TMEM200A (11744735_a_at) / Fold change /veh TMEM200A (11744735_a_at) / RFU CCDC152 (11751479_a_at) / Fold change /veh CCDC152 (11751479_a_at) / RFU FAM211A (11726209_a_at) / Fold change /veh FAM211A (11726209_a_at) / RFU RGS16 (11746705_a_at) / Fold change /veh RGS16 (11746705_a_at) / RFU VCAN (11755009_s_at) / Fold change /veh VCAN (11755009_s_at) / RFU RHOB (11743442_s_at) / Fold change /veh RHOB (11743442_s_at) / RFU RGS16 (11720943_a_at) / Fold change /veh RGS16 (11720943_a_at) / RFU RGS16 (11720944_at) / Fold change /veh RGS16 (11720944_at) / RFU, VPS4B / Fold change vs veh, VPS4B / RFU, CREB1 / Fold change vs veh, CREB1 / RFU, DNAJC13 / Fold change vs veh, DNAJC13 / RFU, GNAQ / Fold change vs veh, GNAQ / RFU, CDK5R1 / Fold change vs veh, CDK5R1 / RFU, ZRANB3 / Fold change vs veh, ZRANB3 / RFU, CUL4A / Fold change vs veh, CUL4A / RFU, CCNY / Fold change vs veh, CCNY / RFU, UFL1 / Fold change vs veh, UFL1 / RFU, COG3 / Fold change vs veh, COG3 / RFU, DIAPH2 / Fold change vs veh, DIAPH2 / RFU, SKA2 / Fold change vs veh, SKA2 / RFU, AFF3 / Fold change vs veh, AFF3 / RFU, LMF1 / Fold change vs veh, LMF1 / RFU, IPO11 / Fold change vs veh, IPO11 / RFU, DFFB / Fold change vs veh, DFFB / RFU, FOXP1 / Fold change vs veh, FOXP1 / RFU, CARD8 / Fold change vs veh, CARD8 / RFU, STRN3 / Fold change vs veh, STRN3 / RFU, ADK / Fold change vs veh, ADK / RFU, RASSF2 / Fold change vs veh, RASSF2 / RFU, WIPF1 / Fold change vs veh, WIPF1 / RFU, LARP1B / Fold change vs veh, LARP1B / RFU, RASA1 / Fold change vs veh, RASA1 / RFU, RB1 / Fold change vs veh, RB1 / RFU, PPFIA1 / Fold change vs veh, PPFIA1 / RFU, MAT2A / Fold change vs veh, MAT2A / RFU, CCT5 / Fold change vs veh, CCT5 / RFU, WDR92 / Fold change vs veh, WDR92 / RFU, CUX1 / Fold change vs veh, CUX1 / RFU, TTC7A / Fold change vs veh, TTC7A / RFU, TMEM135 / Fold change vs veh, TMEM135 / RFU, DEPTOR / Fold change vs veh, DEPTOR / RFU, CPM / Fold change vs veh, CPM / RFU, DNAJB6 / Fold change vs veh, DNAJB6 / RFU, CACNA2D3 / Fold change vs veh, CACNA2D3 / RFU, DTX4 / Fold change vs veh, DTX4 / RFU, TFCP2 / Fold change vs veh, TFCP2 / RFU, GMCL1 /// GMCL1P1 / Fold change vs veh, GMCL1 /// GMCL1P1 / RFU, AEBP2 / Fold change vs veh, AEBP2 / RFU, SNHG1 /// SNORD22 /// SNORD25 /// SNORD26 /// SNORD27 /// SNORD28 /// SNORD29 /// SNORD31 / Fold change vs veh, SNHG1 /// SNORD22 /// SNORD25 /// SNORD26 /// SNORD27 /// SNORD28 /// SNORD29 /// SNORD31 / Fold change (Aza/veh), C12orf56 (ProbeSet 11735607_a_at) / Fold change (ACY-1035/veh), C12orf56 (ProbeSet 11735607_a_at) / Fold change (Aza/veh), FGFR1OP (ProbeSet 11751329_s_at) / Fold change (ACY-1035/veh), FGFR1OP (ProbeSet 11751329_s_at) / Fold change (Aza/veh), VPS36 (ProbeSet 11739960_a_at) / Fold change (ACY-1035/veh), VPS36 (ProbeSet 11739960_a_at) / RFU SYPL1 (11715823_x_at) / Fold change /veh SYPL1 (11715823_x_at) / RFU IGFBP7 (11715501_s_at) / Fold change /veh IGFBP7 (11715501_s_at) / RFU REEP3 (11722064_at) / Fold change /veh REEP3 (11722064_at) / RFU IGLL1 (11728026_x_at) / Fold change /veh IGLL1 (11728026_x_at): dose or concentration left out as unconfirmed
Details: ProbeSet 11749781_s_at; LIST B

Structure (SMILES): Nc1ncn([C@@H]2O[C@H](CO)[C@@H](O)[C@H]2O)c(=O)n1 [azacitidine]
- RFU, BCAT1: 11.21 RFU
